A short description of one series: in vitro. The class given is in vitro ADME. Here is the method: Short-term stabilities were also determined for post-preparation QC standards stored at room temperature for 10 hours. The QC results obtained after storage were compared with spiked concentration values by determining the percentage ratios of experimental values divided by spiked values.
Series [1] is described as follows: stability of stock and working solutions (LC-MS/MS). The class given is physicochemical. As to conditions: stored at 4°C for at least 6 months. As to the method:
The stabilities of stock and working solutions for both analyte and internal standard were also evaluated. Stock solutions of analyte and IS were stored at −20°C for 9 months.

The compound `Cc1ccc(C)c(COc2cc(NC(=O)c3cc(C(F)(F)F)cc(C(F)(F)F)c3)ccc2N(C)S(C)(=O)=O)c1` [BMCL26] displayed a recovery at 8 h, 1.25 ng/mL in the series “in vitro” (rat plasma QC samples, rat plasma, bench top (8 hr) at room temp, 1.25 ng/ml) of 103%. This compound also came in with a recovery at 8 h, 80 ng/mL in the series “in vitro” (rat plasma QC samples, rat plasma, bench top (8 hr) at room temp, 80.00 ng/ml) of 103%. This compound gave a recovery at 3 days, 1.25 ng/mL in the series “in vitro” (rat plasma QC samples, rat plasma, freeze thaw (3 cycles), 1.25 ng/ml) of 98.1%. Also, the recovery at 3 days, 80 ng/mL in “in vitro” (rat plasma QC samples, rat plasma, freeze thaw (3 cycles), 80.00 ng/ml) is 105%. In the series “in vitro” (rat, post-extraction (post-preparation) rat plasma QC samples, post extraction (10 hr) at room temp, 1.25 ng/ml), this compound came in with a recovery at 10 h, 1.25 ng/mL of 102%. Moreover, in the series “in vitro” (rat, post-extraction (post-preparation) rat plasma QC samples, post extraction (10 hr) at room temp, 80.00 ng/ml), the recovery at 10 h, 80 ng/mL was found to be 108%. Further, the “stability of working solutions” value in series [1] (two QC standards (1.25 and 80 ng/mL)) is 99.60–105.00%.
Turning to `Cc1ccc(C)c(COc2cc(NC(=O)C3CCCCC3)ccc2N(C)S(C)(=O)=O)c1` [JCC76, N-(3-(2,5-dimethylbenzyloxy)-4-(methylmethylsulfonamido)phenyl)cyclohexanecaboxamide, reference compound], in series [1] (7.5 ng/mL IS), the “stability of working solutions” value was found to be 115.60%.

The values are drawn from article PMC4727756 (Journal of analytical & bioanalytical techniques, 2015).
